Experimental data published in patent publication US20140343001A1, “INDOLE DERIVATIVES INHIBITORS OF ENZYME LACTATE DEHYDROGENASE (LDH)” (Universitá di Pisa, priority 2011, published 2014).
pIC50, pKi: −log10 of the molar value.

Biological target: T1, hLDH5 (LDH-A) (Homo sapiens, UniProt P00338)
T1 construct: purchased LEEBIO (USA)
Assay: Enzyme inhibition of human lactate dehydrogenase isoform 5
Assay type: biochemical
Details: ranges of values, pH 7.4; for pKi: 37° C., read-out: inhibitory activity against hLDH5 (Ki); for pIC50: room temperature, read-out: inhibitory activity against hLDH5 (IC50)
Method: The compounds described in the examples were evaluated in enzymatic assays to assess its inhibitory properties against two human isoforms of lactate dehydrogenase, hLDH5 containing solely the subunit LDH-A (LEEBIO—USA), and the hLDH1 containing only the LDH subunits-B (Sigma Aldrich, USA), in order to verify the selectivity of these compounds.
(for Ki measurements). Such assays were conducted in cells containing 200 μL of a solution comprising the reagents dissolved in phosphate buffer (KH2PO4 and K2HPO4) at pH 7.4.
IC50 values were calculated as described below. […] Seven different concentrations (in duplicate for each concentration) of compound were used to generate a concentration-response curve. […] Compound solutions were dispensed in 96-well plates (8 μL), then substrate and cofactor dissolved in buffer (152 μl) and enzyme solution (40 μl) were finally added. Dilution of the enzyme stock solution was made to allow a 10% consumption of the cofactor after 15 min. The eventual background fluorescence of the tested compounds or quenching of the NADH fluorescence by the tested compounds was subtracted. In addition to the compound test wells, each plate contained maximum and minimum controls. Assay plates were incubated at room temperature for 15 min and the final measurements were performed using Victor X3 Microplates reader (PerkinElmer®) at a fluorescence emission wavelength of 460 nm (excitation at 340 nm). IC50 were generated using the curve-fitting tool of GraphPad Prism].
The resulting data of enzymatic kinetic (the constants of Michaelis-Menten) were determined by analysis of non-linear regression.

pKi | pIC50 | SMILES
4.00 to 5.00 |  | O=C(O)c1cc2c(C(F)(F)F)cc(-c3ccccc3)cc2n1O[C@@H]1O[C@H](CO)[C@@H](O)[C@H](O)[C@H]1O [Example 2, 6-phenyl-1-(β-D-glucopyranosyl)oxy-4-(trifluoromethyl)-1H-indole-2-carboxylic acid]
 | 3.30 to 4.30 | COC(=O)c1cc2c(C(F)(F)F)cc(-c3ccccc3)cc2n1O[C@@H]1O[C@H](COC(C)=O)[C@@H](OC(C)=O)[C@H](OC(C)=O)[C@H]1OC(C)=O [Example 5, methyl 6-phenyl-1-(β-d-2,3,4,6-tetra-O-acetylglucopyranosyl)oxy-4-(trifluoromethyl)-1H-indole-2-carboxylate]
 | 3.30 to 4.30 | CCOC(=O)c1cc2c(C(F)(F)F)cc(-c3ccccc3)cc2n1O[C@@H]1O[C@H](CO)[C@@H](O)[C@H](O)[C@H]1O [Example 6, ethyl 6-phenyl-1-(β-D-glucopyranosyl)oxy-4-(trifluoromethyl)-1H-indole-2-carboxylate]
 | < 4.00 | CCOC(=O)c1cc2c(C(F)(F)F)cc(-c3ccccc3)cc2n1O[C@@H]1O[C@H](COC(C)=O)[C@@H](OC(C)=O)[C@H](OC(C)=O)[C@H]1OC(C)=O [Example 7, ethyl 6-phenyl-1-(β-d-2,3,4,6-tetra-O-acetylglucopyranosyl)oxy-4-(trifluoromethyl)-1H-indole-2-carboxylate]
 | < 4.00 | COC(=O)c1cc2c(C(F)(F)F)cc(-c3ccc(Cl)cc3Cl)cc2n1O[C@@H]1O[C@H](COC(C)=O)[C@@H](OC(C)=O)[C@H](OC(C)=O)[C@H]1OC(C)=O [Example 11, methyl 6-(2,4-dichlorophenyl)-1-(β-d-2,3,4,6-tetra-O-acetylglucopyranosyl)oxy-4-(trifluoromethyl)-1H-indole-2-carboxylate]
 | 3.30 to 4.30 | CCOC(=O)c1cc2c(C(F)(F)F)cc(-c3ccc(Cl)cc3Cl)cc2n1O[C@@H]1O[C@H](CO)[C@@H](O)[C@H](O)[C@H]1O [Example 12, ethyl 6-(2,4-dichlorophenyl)-1-(β-D-glucopyranosyl)oxy-4-(trifluoromethyl)-1H-indole-2-carboxylate]
 | < 4.00 | CCOC(=O)c1cc2c(C(F)(F)F)cc(-c3ccc(Cl)cc3Cl)cc2n1O[C@@H]1O[C@H](COC(C)=O)[C@@H](OC(C)=O)[C@H](OC(C)=O)[C@H]1OC(C)=O [Example 13, ethyl 6-(2,4-dichlorophenyl)-1-(β-d-2,3,4,6-tetra-O-acetylglucopyranosyl)oxy-4-(trifluoromethyl)-1H-indole-2-carboxylate]
 | 5.00 to 6.00 | COC(=O)c1cc2c(C(F)(F)F)cc(-c3ccccc3)c(-c3ccccc3)c2n1O [Example 14, methyl 1-hydroxy-6,7-diphenyl-4-(trifluoromethyl)-1H-indole-2-carboxylate]
 | 5.00 to 6.00 | COC(=O)c1c(C)c2c(C(F)(F)F)cc(-c3ccccc3)cc2n1O [Example 16, methyl 1-hydroxy-6-phenyl-3-methyl-4-(trifluoromethyl)-1H-indole-2-carboxylate]
5.00 to 6.00 |  | COC(=O)c1cc2c(C(F)(F)F)cc(-c3ccc(OC(F)(F)F)cc3)cc2n1O [Example 18, methyl 1-hydroxy-4-(trifluoromethyl)-6-(4-(trifluoromethoxy)phenyl)-1H-indole-2-carboxylate]
 | 5.00 to 6.00 | COC(=O)c1c(C)c2c(C(F)(F)F)cc(-c3ccc(Cl)cc3Cl)cc2n1O [Example 20, methyl 6-(2,4-dichlorophenyl)-1-hydroxy-3-methyl-4-(trifluoromethyl)-1H-indole-2-carboxylate]
 | < 4.00 | COC(=O)c1cc2c(C(F)(F)F)cc(-c3ccc(Cl)c(Cl)c3)cc2n1O [Example 21, methyl 6-(3,4-dichlorophenyl)-1-hydroxy-4-(trifluoromethyl)-1H-indole-2-carboxylate]
5.30 to 6.30 |  | O=C(O)c1cc2c(C(F)(F)F)cc(-c3ccc(OC(F)(F)F)cc3)cc2n1O [Example 24, 1-hydroxy-4-(trifluoromethyl)-6-(4-(trifluoromethoxy)phenyl)-1H-indole-2-carboxylic acid]
 | 5.00 to 6.00 | Cc1c(C(=O)O)n(O)c2cc(-c3ccc(Cl)cc3Cl)cc(C(F)(F)F)c12 [Example 26, 6-(2,4-dichlorophenyl)-1-hydroxy-3-methyl-4-(trifluoromethyl)-1H-indole-2-carboxylic acid]
5.00 to 6.00 |  | O=C(O)c1cc2c(C(F)(F)F)cc(-c3ccc(Cl)c(Cl)c3)cc2n1O [Example 27, 6-(3,4-dichlorophenyl)-1-hydroxy-4-(trifluoromethyl)-1H-indole-2-carboxylic acid]
 | < 4.00 | CCCCOC(=O)c1cc2c(C(F)(F)F)cc(-c3ccccc3)cc2n1O[C@@H]1O[C@H](COC(C)=O)[C@@H](OC(C)=O)[C@H](OC(C)=O)[C@H]1OC(C)=O [Example 28, butyl 6-phenyl-1-(β-D-2,3,4,6-tetra-O-acetylglucopyranosyl)oxy-4-(trifluoromethyl)-1H-indole-2-carboxylate]

pKi | pIC50 | SMILES
5.00 to 6.00 |  | O=C(O)c1cc2c(C(F)(F)F)cc(-c3cccc(Cl)c3Cl)cc2n1O [Example 37, 6-(2,3-dichlorophenyl)-1-hydroxy-4-(trifluoromethyl)-1H-indole-2-carboxylic acid]
4.60 to 5.30 |  | O=C(O)c1cc2c(C(F)(F)F)cc(-c3cc(Cl)ccc3Cl)cc2n1O [Example 39, 6-(2,5-dichlorophenyl)-1-hydroxy-4-(trifluoromethyl)-1H-indole-2-carboxylic acid]
 | < 4.00 | CC(=O)OC[C@H]1O[C@@H](On2c(C(=O)OC(C)C)cc3c(C(F)(F)F)cc(-c4ccc(Cl)cc4Cl)cc32)[C@H](OC(C)=O)[C@@H](OC(C)=O)[C@@H]1OC(C)=O [Example 44, isopropyl 6-(2,4-dichlorophenyl)-1-(β-d-2,3,4,6-tetra-O-acetylglucopyranosyl)oxy-4-(trifluoromethyl)-1H-indole-2-carboxylate]
 | < 4.00 | CC(C)OC(=O)c1cc2c(C(F)(F)F)cc(-c3ccc(Cl)cc3Cl)cc2n1O[C@@H]1O[C@H](CO)[C@@H](O)[C@H](O)[C@H]1O [Example 45, isopropyl 6-(2,4-dichlorophenyl)-1-(β-D-glucopyranosyl)oxy-4-(trifluoromethyl)-1H-indole-2-carboxylate]
 | < 4.00 | CCCCOC(=O)c1cc2c(C(F)(F)F)cc(-c3ccc(Cl)cc3Cl)cc2n1O[C@@H]1O[C@H](COC(C)=O)[C@@H](OC(C)=O)[C@H](OC(C)=O)[C@H]1OC(C)=O [Example 46, butyl 6-(2,4-dichlorophenyl)-1-(β-d-2,3,4,6-tetra-O-acetylglucopyranosyl)oxy-4-(trifluoromethyl)-1H-indole-2-carboxylate]
 | < 4.00 | CCCCOC(=O)c1cc2c(C(F)(F)F)cc(-c3ccc(Cl)cc3Cl)cc2n1O[C@@H]1O[C@H](CO)[C@@H](O)[C@H](O)[C@H]1O [Example 47, butyl 6-(2,4-dichlorophenyl)-1-(β-D-glucopyranosyl)oxy-4-(trifluoromethyl)-1H-indole-2-carboxylate]
 | 6.00 to 8.00 | CC(C)(C)C1CCC(OC(=O)c2cc3c(C(F)(F)F)cc(-c4ccccc4)cc3n2O)CC1 (stereo not shown) [Example 49, 4-(tert-butyl)cyclohexyl 1-hydroxy-6-phenyl-4-(trifluoromethyl)-1H-indole-2-carboxylate]
 | 6.00 to 8.00 | CC(C)(C)C1CCC(OC(=O)c2cc3c(C(F)(F)F)cc(-c4ccc(Cl)cc4Cl)cc3n2O)CC1 (stereo not shown) [Example 50, 4-(tert-butyl)cyclohexyl 6-(2,4-dichlorophenyl)-1-hydroxy-4-(trifluoromethyl)-1H-indole-2-carboxylate]
4.00 to 5.00 |  | COC(=O)c1cc2c(F)cc(-c3ccccc3)cc2n1O [Example 51, methyl 4-fluoro-1-hydroxy-6-phenyl-1H-indole-2-carboxylate]
4.60 to 5.30 |  | O=C(O)c1cc2c(F)cc(-c3ccccc3)cc2n1O [Example 52, 4-fluoro-1-hydroxy-6-phenyl-1H-indole-2-carboxylic acid]
4.60 to 5.30 |  | O=C(O)c1cc2c(F)cc(-c3ccc(Cl)cc3Cl)cc2n1O [Example 54, 6-(2,4-dichlorophenyl)-4-fluoro-1-hydroxy-1H-indole-2-carboxylic acid]
 | 6.00 to 8.00 | O=C(OCc1ccccc1)c1cc2c(C(F)(F)F)cc(-c3ccc(Cl)cc3Cl)cc2n1O [Example 55, benzyl 6-(2,4-dichlorophenyl)-1-hydroxy-4-(trifluoromethyl)-1H-indole-2-carboxylate]
 | 6.00 to 8.00 | O=C(OCc1ccc(-c2ccccc2)cc1)c1cc2c(C(F)(F)F)cc(-c3ccc(Cl)cc3Cl)cc2n1O [Example 56, [1,1′-biphenyl]-4-ylmethyl 6-(2,4-dichlorophenyl)-1-hydroxy-4-(trifluoromethyl)-1H-indole-2-carboxylate]
 | < 4.00 | CN1CCC(OC(=O)c2cc3c(C(F)(F)F)cc(-c4ccccc4)cc3n2O)CC1 [Example 57, 1-methylpiperidin-4-yl 1-hydroxy-6-phenyl-4-(trifluoromethyl)-1H-indole-2-carboxylate]
 | < 4.00 | CN1CCC(OC(=O)c2cc3c(C(F)(F)F)cc(-c4ccc(Cl)cc4Cl)cc3n2O)CC1 [Example 58, 1-methylpiperidin-4-yl 6-(2,4-dichlorophenyl)-1-hydroxy-4-(trifluoromethyl)-1H-indole-2-carboxylate]
